Data published in the NIST ThermoML archive (doi:10.1016/j.jct.2016.06.023).
± gives the expanded uncertainty stated by the source.

Test: mn = molality of the nth substance listed, in mol/kg
Details: 101.3 kPa, Liquid, Vibrating tube method

O=C(O)CC(=O)O [propanedioic acid] + O
mass density [kg/m3]
Details | 313.15 K | 318.15 K | 323.15 K | 328.15 K | 333.15 K | 338.15 K | 343.15 K
m1 = 0.01001 | 992.67 ± 0.4 | 990.67 ± 0.4 | 988.48 ± 0.4 | 986.12 ± 0.4 | 983.63 ± 0.4 | 980.99 ± 0.4 | 978.22 ± 0.4
m1 = 0.02001 | 993.03 ± 0.4 | 991.04 ± 0.4 | 988.85 ± 0.4 | 986.5 ± 0.4 | 984.01 ± 0.4 | 981.37 ± 0.4 | 978.59 ± 0.4
m1 = 0.03 | 993.37 ± 0.4 | 991.39 ± 0.4 | 989.19 ± 0.4 | 986.83 ± 0.4 | 984.34 ± 0.4 | 981.69 ± 0.4 | 978.9 ± 0.4
m1 = 0.03962 | 993.74 ± 0.4 | 991.75 ± 0.4 | 989.54 ± 0.4 | 987.17 ± 0.4 | 984.68 ± 0.4 | 982.03 ± 0.4 | 979.24 ± 0.4
m1 = 0.04998 | 994.12 ± 0.4 | 992.09 ± 0.4 | 989.92 ± 0.4 | 987.55 ± 0.4 | 985.05 ± 0.4 | 982.41 ± 0.4 | 979.6 ± 0.4
m1 = 0.05936 | 994.45 ± 0.4 | 992.44 ± 0.4 | 990.24 ± 0.4 | 987.86 ± 0.4 | 985.36 ± 0.4 | 982.72 ± 0.4 | 979.92 ± 0.4
m1 = 0.06926 | 994.8 ± 0.4 | 992.8 ± 0.4 | 990.58 ± 0.4 | 988.21 ± 0.4 | 985.69 ± 0.4 | 983 ± 0.4 | 980.22 ± 0.4
m1 = 0.07949 | 995.16 ± 0.4 | 993.16 ± 0.4 | 990.94 ± 0.4 | 988.56 ± 0.4 | 986.05 ± 0.4 | 983.39 ± 0.4 | 980.58 ± 0.4
m1 = 0.08906 | 995.51 ± 0.4 | 993.49 ± 0.4 | 991.26 ± 0.4 | 988.89 ± 0.4 | 986.37 ± 0.4 | 983.68 ± 0.4 | 980.9 ± 0.4
m1 = 0.09935 | 995.86 ± 0.4 | 993.83 ± 0.4 | 991.63 ± 0.4 | 989.26 ± 0.4 | 986.72 ± 0.4 | 984.02 ± 0.4 | 981.18 ± 0.4
m1 = 0.1984 | 999.32 ± 0.4 | 997.27 ± 0.4 | 995 ± 0.4 | 992.58 ± 0.4 | 990.02 ± 0.4 | 987.31 ± 0.4 | 984.49 ± 0.4
m1 = 0.2977 | 1002.76 ± 0.4 | 1000.66 ± 0.4 | 998.36 ± 0.4 | 995.89 ± 0.4 | 993.31 ± 0.4 | 990.55 ± 0.4 | 987.71 ± 0.4
m1 = 0.404 | 1006.4 ± 0.4 | 1004.17 ± 0.4 | 1001.82 ± 0.4 | 999.32 ± 0.4 | 996.78 ± 0.4 | 993.95 ± 0.4 | 991.05 ± 0.4
m1 = 0.5055 | 1009.9 ± 0.4 | 1007.57 ± 0.4 | 1005.17 ± 0.4 | 1002.63 ± 0.4 | 999.91 ± 0.4 | 997.16 ± 0.4 | 994.29 ± 0.4
m1 = 0.6055 | 1013.17 ± 0.4 | 1010.78 ± 0.4 | 1008.36 ± 0.4 | 1005.78 ± 0.4 | 1003.1 ± 0.4 | 1000.24 ± 0.4 | 997.39 ± 0.4
m1 = 0.6936 | 1016.02 ± 0.4 | 1013.61 ± 0.4 | 1011.15 ± 0.4 | 1008.54 ± 0.4 | 1005.81 ± 0.4 | 1002.93 ± 0.4 | 1000.21 ± 0.4
m1 = 0.7926 | 1019.25 ± 0.4 | 1016.73 ± 0.4 | 1014.23 ± 0.4 | 1011.64 ± 0.4 | 1008.99 ± 0.4 | 1006 ± 0.4 | 1002.97 ± 0.4
m1 = 0.891 | 1022.41 ± 0.4 | 1019.67 ± 0.4 | 1017.35 ± 0.4 | 1014.68 ± 0.4 | 1011.89 ± 0.4 | 1008.94 ± 0.4 | 1005.93 ± 0.4
m1 = 0.9895 | 1025.39 ± 0.4 | 1022.8 ± 0.4 | 1020.22 ± 0.4 | 1017.49 ± 0.4 | 1014.63 ± 0.4 | 1011.16 ± 0.4 | 1008.49 ± 0.4
